US9023789B2, “Amylin analogs and pharmaceutical compositions thereof” (Novo Nordisk A/S, priority 2012, dated 2015)
Where two headings read alike, the source gives them in different places. Numbered stars: 1 amine (or outer) side, 2 acyl side, 3 side chain; on linkers, the order of the positions; unused ones are H or OH. Bridge positions count the residues as written; N and C are the ends. Side chains are listed from the residue outwards. Peptide text beside a SMILES is read from it. * marks the point of attachment. C20 diacid = O=C(O)CCCCCCCCCCCCCCCCCCC(=O)*; γGlu = O=C(O)[C@H](CCC(=O)[*:2])N[*:1]; AEEA = NCCOCCOCC(=O)O

How the values were obtained:
[1] = molecular target: T1, human calcitonin receptor (Homo sapiens, UniProt P30988); test: ASSAY (VII) binding to the human calcitonin receptor (SPA, 125I-Calcitonin); conditions: read-out: hCTR bind IC50;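 note: cell membranes (35 ng/µL) combined with SPA beads in 40 µL of pH 7.4 Hepes buffer, 384-well format, signal counted on a TopCounter instrument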
T1 construct: expressed in transfected cells
T1 sequence (P30988 25-474): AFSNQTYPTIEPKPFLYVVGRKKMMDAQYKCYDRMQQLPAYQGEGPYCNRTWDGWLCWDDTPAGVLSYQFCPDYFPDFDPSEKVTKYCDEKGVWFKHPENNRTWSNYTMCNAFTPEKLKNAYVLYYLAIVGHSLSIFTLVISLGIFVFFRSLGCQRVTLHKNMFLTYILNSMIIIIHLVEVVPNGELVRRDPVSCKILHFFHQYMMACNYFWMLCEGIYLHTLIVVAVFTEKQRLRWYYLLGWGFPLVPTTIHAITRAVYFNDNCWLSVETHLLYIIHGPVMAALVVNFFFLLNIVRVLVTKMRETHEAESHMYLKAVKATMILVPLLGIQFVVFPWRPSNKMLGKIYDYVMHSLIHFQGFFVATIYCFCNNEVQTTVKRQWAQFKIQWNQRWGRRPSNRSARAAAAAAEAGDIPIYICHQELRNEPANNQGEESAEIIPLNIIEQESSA

[2] = molecular target: T2, human calcitonin (a) receptor in BHK570 cells (Homo sapiens, UniProt P30988); test: ASSAY (II)a functional assay, human calcitonin receptor (CRE luciferase); type: cell-based; conditions: read-out: hCTR funct. EC50
T2 construct: expressed in transfected cells
T2 sequence (P30988 25-474): T1 sequence (P30988 25-474)
Outline: (§1)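 Functional agonism was measured by CRE-luciferase reporter luminescence in BHK cells bearing calcitonin receptor, or calcitonin receptor plus RAMP-3 as the amylin 3(a) receptor. Stimulation lasted 3 hours at 37° C.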

[3] = molecular target: T3, rat amylin receptor (rat calcitonin receptor + rat RAMP 3) (Rattus norvegicus, UniProt P32214+Q9JJ73); test: ASSAY (VI) binding to the rat amylin receptor; conditions: for IC50: binding to rat amylin receptor, read-out: rAmylin-R bind IC50
T3 construct: expressed in transfected cells; host or cells: BHK tk'ts 13 (transient, FuGENE 6), membranes
T3 sequence (P32214 25-479 isoform P32214-2 limits assumed): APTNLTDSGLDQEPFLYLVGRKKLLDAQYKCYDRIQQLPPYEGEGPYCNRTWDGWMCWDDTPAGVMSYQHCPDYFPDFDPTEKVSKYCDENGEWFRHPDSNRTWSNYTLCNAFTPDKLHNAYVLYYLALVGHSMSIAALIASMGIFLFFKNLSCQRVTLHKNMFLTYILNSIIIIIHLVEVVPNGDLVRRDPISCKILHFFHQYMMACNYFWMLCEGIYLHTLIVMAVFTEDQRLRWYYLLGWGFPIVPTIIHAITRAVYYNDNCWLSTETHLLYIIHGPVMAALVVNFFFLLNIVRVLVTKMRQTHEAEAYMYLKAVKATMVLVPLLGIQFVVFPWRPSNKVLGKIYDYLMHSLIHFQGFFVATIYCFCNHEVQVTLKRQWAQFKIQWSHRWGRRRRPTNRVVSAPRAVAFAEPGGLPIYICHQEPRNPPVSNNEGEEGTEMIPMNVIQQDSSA
T3 sequence (Q9JJ73 23-147 partner): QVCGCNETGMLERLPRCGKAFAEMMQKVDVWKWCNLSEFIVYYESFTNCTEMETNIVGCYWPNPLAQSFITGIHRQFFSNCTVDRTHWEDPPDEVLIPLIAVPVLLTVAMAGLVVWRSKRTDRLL
Outline: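 The cell-membrane assay assessed binding at the rat amylin receptor. BHK tk′ts 13 cells were transfected transiently with rat calcitonin receptor, with FuGENE® 6 (Roche) as the transfection reagent, used per the manufacturer's recommendations. Approximately 48 hours after transfection the cells were harvested, and membranes were prepared for measuring binding.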

[4] = ASSAY (IV) determination of solubility; type: physicochemical
Outline: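 Samples of polypeptide, prepared from a water stock at […] and diluted 1:1 into 100 mM buffers spanning pH 3.0 to 8.0, stood 18 hours at room temperature. Polypeptide concentration was then determined by UPLC following centrifugation.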

[5] = molecular target: T4, human amylin 3(a) receptor (human calcitonin receptor + RAMP-3) in BHK570 cells (Homo sapiens, UniProt O60896+P30988); test: ASSAY (II)a functional assay, human amylin receptor (CRE luciferase); type: cell-based; conditions: for EC50: human amylin receptor functional potency, assay (II), read-out: hAmylin-R funct. EC50
T4 construct: expressed in transfected cells
T4 sequence (O60896 24-148, one chain of several): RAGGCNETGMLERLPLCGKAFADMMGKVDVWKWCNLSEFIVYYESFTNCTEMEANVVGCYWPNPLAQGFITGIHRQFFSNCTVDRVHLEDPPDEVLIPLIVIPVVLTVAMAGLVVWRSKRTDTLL
Outline: as §1

[6] = Table 7, rat binding selectivity, rCTR IC50 / rAmylin-R IC50
[7] = Table 7a (preferred compounds), rat binding selectivity, rCTR IC50 / rAmylin-R IC50
[8] = ratio of rCTR bind IC50 to rAmylin-R bind IC50
[9] = bistrispropane buffer, pH 6.5, read-out: Solubility pH 6.5 Concentration
[10] = bistrispropane buffer, pH 7.5, read-out: Solubility pH 7.5 Concentration
[11] = bistrispropane buffer, pH 6.0, read-out: Solubility pH 6.0 Concentration
[12] = bistrispropane buffer, pH 7.0, read-out: Solubility pH 7.0 Concentration
[13] = bistrispropane buffer, pH 8.0, read-out: Solubility pH 8.0 Concentration
[14] = glycylglycine buffer, pH 3.0, read-out: Solubility pH 3.0 Concentration
[15] = glycylglycine buffer, pH 4.0, read-out: Solubility pH 4.0 Concentration
[16] = glycylglycine buffer, pH 5.0, read-out: Solubility pH 5.0 Concentration
[17] = hCTR funct. EC50 divided by hAmylin-R funct. EC50
[18] = hCTR funct. EC50 over hAmylin-R funct. EC50
[19] = human functional selectivity: hCTR funct. EC50 / hAmylin-R funct. EC50

| IC50 [1] | EC50 [2] | IC50 ([3]; Table 7) | Ratio rCT/rAmylin binding [3, 6] | Ratio rCT/rAmylin binding [3, 7] | Ratio rCT/rAmylin binding [3, 8] | solubility at 18 h [4, 9] | solubility at 18 h [4, 10] | solubility at 18 h [4, 11] | solubility at 18 h [4, 12] | solubility at 18 h [4, 13] | solubility at 18 h [4, 14] | solubility at 18 h [4, 15] | solubility at 18 h [4, 16] | Ratio hCT/hAmylin funct. [5, 17] | Ratio hCT/hAmylin funct. [5, 18] | EC50 [5] | Ratio hCT/hAmylin funct. [5, 19] | Compound |
| --- | --- | --- | --- | --- | --- | --- | --- | --- | --- | --- | --- | --- | --- | --- | --- | --- | --- | --- |
| 36.4 nM | 3.94 nM | 1.65 nM | 21.5 | 21.5 | 21.5 | ≥ 200 µM | ≥ 200 µM | ≥ 200 µM | ≥ 200 µM | ≥ 200 µM | ≥ 200 µM | ≥ 200 µM | ≥ 200 µM | 24.5 | 24.5 | 0.161 nM | 24.5 | CC[C@H](C)[C@H](NC(=O)[C@H](C)NC(=O)CNC(=O)[C@H](Cc1ccccc1)NC(=O)[C@H](CC(N)=O)NC(=O)[C@@H]1CCCN1C(=O)[C@H](CO)NC(=O)[C@H](CO)NC(=O)[C@H](Cc1c[nH]cn1)NC(=O)[C@H](CCCNC(=N)N)NC(=O)[C@H](CC(C)C)NC(=O)[C@H](Cc1ccccc1)NC(=O)[C@H](CC(N)=O)NC(=O)[C@H](C)NC(=O)[C@H](CC(C)C)NC(=O)[C@H](CCCNC(=N)N)NC(=O)[C@H](CCC(N)=O)NC(=O)[C@@H](NC(=O)[C@H](C)NC(=O)[C@@H]1CSSC[C@H](NC(=O)[C@@H](N)CCCCNC(=O)CC[C@H](NC(=O)CCCCCCCCCCCCCCCCCCC(=O)O)C(=O)O)C(=O)N[C@@H](CC(N)=O)C(=O)N[C@@H]([C@@H](C)O)C(=O)N[C@@H](C)C(=O)N[C@@H]([C@@H](C)O)C(=O)N1)[C@@H](C)O)C(=O)N1CCC[C@H]1C(=O)N[C@@H](CO)C(=O)N[C@@H](CO)C(=O)N[C@H](C(=O)N[C@@H](CC(N)=O)C(=O)N[C@H](C(=O)NCC(=O)N[C@@H](CCCNC(=N)N)C(=O)N[C@@H](CC(N)=O)C(=O)N[C@H](C(=O)N[C@@H](Cc1ccc(O)cc1)C(N)=O)[C@@H](C)O)C(C)C)[C@@H](C)O [Example 79] (H-K([γGlu-C20 diacid])CNTATCATQRLANFLRHSSPNFGAIPSSTNVGRNTY-NH2; disulfide 2-7 (inferred); N-terminus assumed) |
| 88.8 nM | 12.7 nM | 1.64 nM | 87.0 | 87.0 | 87.0 | ≥ 200 µM | ≥ 200 µM | ≥ 200 µM | ≥ 200 µM | ≥ 200 µM | ≥ 200 µM | ≥ 200 µM | ≥ 200 µM | 59.2 | 59.2 | 0.215 nM | 59.2 | CC[C@H](C)[C@H](NC(=O)[C@H](C)NC(=O)CNC(=O)[C@H](Cc1ccccc1)NC(=O)[C@H](CC(N)=O)NC(=O)[C@@H]1CCCN1C(=O)[C@H](CO)NC(=O)[C@H](CO)NC(=O)[C@H](Cc1c[nH]cn1)NC(=O)[C@H](CCCNC(=N)N)NC(=O)[C@H](CC(C)C)NC(=O)[C@H](Cc1ccccc1)NC(=O)[C@H](CCCNC(=N)N)NC(=O)[C@H](C)NC(=O)[C@H](CC(C)C)NC(=O)[C@H](CCCNC(=N)N)NC(=O)[C@H](CCC(N)=O)NC(=O)[C@@H](NC(=O)[C@H](C)NC(=O)[C@@H]1CSSC[C@H](NC(=O)[C@@H](N)CCCCNC(=O)COCCOCCNC(=O)CC[C@H](NC(=O)CCCCCCCCCCCCCCCCCCC(=O)O)C(=O)O)C(=O)N[C@@H](CC(N)=O)C(=O)N[C@@H]([C@@H](C)O)C(=O)N[C@@H](C)C(=O)N[C@@H]([C@@H](C)O)C(=O)N1)[C@@H](C)O)C(=O)N1CCC[C@H]1C(=O)N[C@@H](CO)C(=O)N[C@@H](CO)C(=O)N[C@H](C(=O)N[C@@H](CC(N)=O)C(=O)N[C@H](C(=O)NCC(=O)N[C@@H](CO)C(=O)N[C@@H](CC(N)=O)C(=O)N[C@H](C(=O)N[C@@H](Cc1ccc(O)cc1)C(N)=O)[C@@H](C)O)C(C)C)[C@@H](C)O [Example 82] (H-K([AEEA-γGlu-C20 diacid])CNTATCATQRLARFLRHSSPNFGAIPSSTNVGSNTY-NH2; disulfide 2-7; N-terminus assumed) |
